The record followed here is article PMC4823954, “From fighting depression to conquering tumors: a novel tricyclic thiazepine compound as a tubulin polymerization inhibitor” (Cell Death & Disease, 2016).

One data set concerns H460TaxR. Nature of the data set: Cell viability assay (sulforhodamine B). To be noted: for Resistance Folds: EC50 in H460TaxR cells divided by EC50 in H460 cells; for EC50: Homo sapiens, H460/TaxR. In kind it is cell-based, human. The method, then: (§1) All biological reagents and solvents were obtained from commercial suppliers and used as recommended. The human NSCLC cell line H460 and P-gp-overexpressing drug-resistant cell line H460TaxR were cultured in RPMI-1640 medium supplemented with 10% fetal bovine serum, 100 units/ml penicillin and […] streptomycin. The NHFB cell line NHFB was cultured in DMEM with the same supplements. All cells were maintained in a 37 °C incubator with 95% humidity and 5% CO2.
(§2) The cell viability was determined using the sulforhodamine B assay.[64] In brief, cells (4000 cells in 100 μl medium) were seeded in 96-well culture plates and incubated for 24 h. The cells were treated with the compounds or with an equal volume (0.1%) of DMSO for 72 h. The cell viability was calculated using the following formula: cell viability=Atreatment/Acontrol. The EC50 values were determined using the Sigma Plot 10.0 software package (Systat Software Inc., San Jose, CA, USA).

The test system of another data set is H460. The data set can be described thus: Cell viability assay (sulforhodamine B). In kind it is cell-based, human. To be noted: Homo sapiens. The method, then: as §1, §2
Another data set deals with NHFB. Nature of the data set: Cell viability assay (sulforhodamine B). In kind it is cell-based. To be noted: Fibroblast; NHFB normal human fibroblasts, 72 h. As to the method:
as §1, §2

A further data set relates to H460 xenograft. The data set can be described thus: NSCLC xenograft tumor growth inhibition. In kind it is in vivo. To be noted: H460 xenografted mice; PTX 10 mg/kg i.v., four doses every other day. As to the method:
(§3) (a) The tumor volume was measured every other day. […] (b) Blood biochemical and hematological analyses.

For the next data set, the system named is H460TaxR xenograft. The data set can be described thus: NSCLC xenograft tumor growth inhibition. In kind it is in vivo. To be noted: H460TaxR xenografted mice; PTX 10 mg/kg i.v., four doses every other day. As to the method:
as §3

The nature of data set [1]: toxicity in xenografted mice. To be noted: end of experiment, hematoxylin–eosin.
Procedure: Five injections of vehicle and TBPT (30 or 60 mg/kg) were administered intravenously at days 1, 3, 5, 7 and 9 (arrows). Four injections of PTX (10 mg/kg) were administered intravenously at days 1, 3, 5 and 7. (a) The tumor volume was measured every other day. When the tumor volume in the solvent-treated group exceeded 1500 mm^3, the experiment was terminated. (b) Blood biochemical and hematological analyses. (c) The body weights of the mice were monitored every other day during the experiments. *P<0.05, Student's t-test with day 0, N=5
Figure 3 Histopathological examination of the major organs from TBPT or PTX-treated mouse tumor at the end of the experiments. The cross-sections of organs were stained with hematoxylin–eosin. […] The scale bars represent 50 μm and are uniform in each column
H460 and H460TaxR cells (5 × 10^6 cells in 100 μl PBS) were injected subcutaneously into the dorsal flank of each mouse. When the tumors reached volumes of 100 mm^3, the mice were divided randomly into four groups. The mice were treated every other day five times with intravenous injections of (1) vehicle (the solvent of TBPT: 60% PBS, 8% Cremophor EL, 8% EtOH, 12% poly propylene glycol and 12% PEG-400), (2) TBPT (30 mg/kg) or (3) TBPT (60 mg/kg). Another group was treated with PTX (10 mg/kg) every other day four times as the positive control. The tumor dimensions and body weights were measured every other day. The tumor volume was calculated according to a standard formula: volume=width^2 × length/2. The experiment was terminated and the mice were killed when the tumor volumes in the solvent-treated group exceeded 1500 mm^3. The mouse organs and blood were collected and used for hematoxylin–eosin staining and serum chemistry assay. TGI rates were assessed using the following formula: TGI=1− (Tt−T0)/(Ct−C0) × 100%. Tt and T0 indicate the tumor volumes of the treated group at days t and 0. Ct and C0 indicate the tumor volumes of the control group at days t and 0, respectively.
[2] abbreviates: H460TaxR(+Rev), Reversan (P-gp inhibitor).

As a reminder, the EC50 is the concentration needed to bring the measured effect to its halfway point. A lower EC50 goes with a more potent agent. As for `COc1cccc2c1C(=O)c1c(O)c3c(c(O)c1C2=O)C[C@@](O)(C(=O)CO)C[C@@H]3O[C@H]1C[C@H](N)[C@H](O)[C@H](C)O1` [DOX, Doxorubicin], the “Resistance Folds” value in the data set on H460TaxR came out at 18.6. The EC50 was found to be 2050 ± 690 nM with H460TaxR (72 h, H460TaxR cells); 170 ± 100 nM with H460TaxR (setting [2]); 110 ± 70 nM in the data set on H460 (NCI-H460, 72 h, H460 cells, 72 h).

Consider `CC(=O)O[C@H]1C(=O)[C@@]2(C)[C@H]([C@H](OC(=O)c3ccccc3)[C@]3(O)C[C@H](OC(=O)[C@H](O)[C@@H](NC(=O)c4ccccc4)c4ccccc4)C(C)=C1C3(C)C)[C@]1(OC(C)=O)CO[C@@H]1C[C@@H]2O` [PTX, paclitaxel], for which the EC50 with NHFB worked out at 51 nM; in the data set with H460TaxR (72 h, H460TaxR cells) it was 822 nM; in the data set with H460TaxR (H460TaxR cells) it was 990 ± 190 nM; with H460TaxR (setting [2]), 4.4 ± 2.8 nM; in the data set with H460 (NCI-H460, H460 cells), 6 ± 2.1 nM. Besides, the “Resistance Folds” value in the data set on H460TaxR was 165.0. The entries for the “tumor growth inhibition, TGI” value in the data set on H460 xenograft and with H460TaxR xenograft were 66.2% and 42.0%, respectively. The “histopathological examination of the major organs” value in data set [1] was “Hepatocyte necrosis”.

As for `CC[C@]1(O)C[C@H]2CN(CCc3c([nH]c4ccccc34)[C@@](C(=O)OC)(c3cc4c(cc3OC)N(C=O)[C@H]3[C@@](O)(C(=O)OC)[C@H](OC(C)=O)[C@]5(CC)C=CCN6CC[C@]43[C@@H]65)C2)C1` [VCR, Vincristine], in the data set with H460TaxR, the “Resistance Folds” value is reported as 78.4. Also, the EC50 in the data set with H460TaxR (H460TaxR cells) came to 1010 ± 101 nM; with H460TaxR (setting [2]) it was 9.1 ± 3.3 nM; in the data set with H460 (NCI-H460, H460 cells), 12.9 ± 5.2 nM.
